Data as given in publication PMC5761851, “Application of a phenotypic drug discovery strategy to identify biological and chemical starting points for inhibition of TSLP production in lung epithelial cells” (PLoS ONE, 2018).
Values joined by “and” are separate entries in the source; they are usually repeats but may differ in a detail not shown here. Equal values may be shown once.

How the values were obtained:
Experiment in all cases: kinase selectivity panel
Format in all cases: biochemical
[1] = molecular target: T1, MuSK (Homo sapiens, UniProt O15146); conditions: read-out: percentage of control activity (POC), MuSK
T1 construct: purchased Eurofins Pharma Discovery Services (KinaseProfiler; Cerep BioPrint panel)
T1 sequence (O15146 24-869): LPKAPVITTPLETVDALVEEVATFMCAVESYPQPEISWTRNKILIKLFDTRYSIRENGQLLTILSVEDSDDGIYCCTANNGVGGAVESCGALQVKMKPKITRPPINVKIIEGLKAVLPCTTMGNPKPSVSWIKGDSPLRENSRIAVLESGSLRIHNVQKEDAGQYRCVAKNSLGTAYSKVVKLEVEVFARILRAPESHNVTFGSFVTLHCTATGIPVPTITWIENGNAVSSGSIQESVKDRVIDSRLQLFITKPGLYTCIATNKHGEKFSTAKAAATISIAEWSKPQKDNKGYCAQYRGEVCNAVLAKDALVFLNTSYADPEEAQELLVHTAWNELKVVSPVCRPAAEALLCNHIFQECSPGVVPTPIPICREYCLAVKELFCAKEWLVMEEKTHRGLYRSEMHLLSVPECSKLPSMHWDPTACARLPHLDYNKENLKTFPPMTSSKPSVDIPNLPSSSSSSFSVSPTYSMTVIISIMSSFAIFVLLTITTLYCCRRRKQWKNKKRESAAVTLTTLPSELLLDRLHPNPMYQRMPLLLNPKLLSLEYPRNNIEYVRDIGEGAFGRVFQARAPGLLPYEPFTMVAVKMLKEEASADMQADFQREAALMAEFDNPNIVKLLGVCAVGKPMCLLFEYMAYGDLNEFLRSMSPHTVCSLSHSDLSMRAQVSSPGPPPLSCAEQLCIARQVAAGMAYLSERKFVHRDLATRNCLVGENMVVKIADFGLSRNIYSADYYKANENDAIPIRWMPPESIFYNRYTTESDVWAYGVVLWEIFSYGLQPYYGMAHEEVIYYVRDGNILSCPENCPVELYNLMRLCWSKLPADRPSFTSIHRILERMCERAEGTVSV
Summary of the method: (§1)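 The compound is screened at 10 μM in duplicate against 125 representative kinases. Selected activities are followed up with a nine-concentration duplicate titration to give IC50.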

[2] = molecular target: T2, NEK2 (Homo sapiens, UniProt P51955); conditions: read-out: percentage of control activity (POC), NEK2
T2 construct: purchased Eurofins Pharma Discovery Services (KinaseProfiler; Cerep BioPrint panel)
T2 sequence (P51955 1-445): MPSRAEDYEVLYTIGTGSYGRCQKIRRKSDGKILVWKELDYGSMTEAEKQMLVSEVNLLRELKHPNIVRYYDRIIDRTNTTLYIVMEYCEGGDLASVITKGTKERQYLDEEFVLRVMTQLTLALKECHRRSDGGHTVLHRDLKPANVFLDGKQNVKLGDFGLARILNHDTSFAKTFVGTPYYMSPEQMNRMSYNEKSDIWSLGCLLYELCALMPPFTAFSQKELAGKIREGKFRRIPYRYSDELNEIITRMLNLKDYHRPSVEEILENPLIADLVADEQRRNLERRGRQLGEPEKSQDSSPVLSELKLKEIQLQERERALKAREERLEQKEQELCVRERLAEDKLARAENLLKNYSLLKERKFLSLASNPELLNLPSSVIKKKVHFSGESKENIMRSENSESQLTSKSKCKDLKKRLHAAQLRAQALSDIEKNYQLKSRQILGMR
Summary of the method: as §1

[3] = molecular target: T3, mTOR (Homo sapiens, UniProt P42345); conditions: for remaining activity at 10 µM: read-out: percentage of control activity (POC), mTOR
T3 construct: Eurofins Pharma Discovery Services (contract assay service)
Summary of the method: as §1

[4] = molecular target: T4, Pyk2 (Homo sapiens, UniProt Q14289); conditions: read-out: percentage of control activity (POC), Pyk2
T4 construct: purchased Eurofins Pharma Discovery Services (KinaseProfiler; Cerep BioPrint panel)
Summary of the method: as §1

[5] = molecular target: T5, PKCα (Homo sapiens, UniProt P17252); conditions: read-out: percentage of control activity (POC), PKCα
T5 construct: purchased Eurofins Pharma Discovery Services (KinaseProfiler; Cerep BioPrint panel)
Summary of the method: as §1

[6] = molecular target: T6, KDR (Homo sapiens, UniProt P35968); conditions: read-out: percentage of control activity (POC), KDR
T6 construct: purchased Eurofins Pharma Discovery Services (KinaseProfiler; Cerep BioPrint panel)
Summary of the method: as §1

[7] = molecular target: T7, IRAK1 (Homo sapiens, UniProt P51617); conditions: read-out: percentage of control activity (POC), IRAK1
T7 construct: purchased Eurofins Pharma Discovery Services (KinaseProfiler; Cerep BioPrint panel)
Summary of the method: as §1

[8] = molecular target: T8, BRK (Homo sapiens, UniProt Q13882); conditions: read-out: percentage of control activity (POC), BRK
T8 construct: purchased Eurofins Pharma Discovery Services (KinaseProfiler; Cerep BioPrint panel)
Summary of the method: as §1

[9] = molecular target: T9, CK1δ (Homo sapiens, UniProt P48730); conditions: read-out: percentage of control activity (POC), CK1δ
T9 construct: purchased Eurofins Pharma Discovery Services (KinaseProfiler; Cerep BioPrint panel)
Summary of the method: as §1

[10] = molecular target: T10, AMPKα1 (Homo sapiens, UniProt Q13131); conditions: read-out: percentage of control activity (POC), AMPKα1
T10 construct: purchased Eurofins Pharma Discovery Services (KinaseProfiler; Cerep BioPrint panel)
Summary of the method: as §1

[11] = molecular target: T11, ZAP-70 (Homo sapiens, UniProt P43403); conditions: read-out: percentage of control activity (POC), ZAP-70
T11 construct: purchased Eurofins Pharma Discovery Services (KinaseProfiler; Cerep BioPrint panel)
T11 sequence (P43403 1-619): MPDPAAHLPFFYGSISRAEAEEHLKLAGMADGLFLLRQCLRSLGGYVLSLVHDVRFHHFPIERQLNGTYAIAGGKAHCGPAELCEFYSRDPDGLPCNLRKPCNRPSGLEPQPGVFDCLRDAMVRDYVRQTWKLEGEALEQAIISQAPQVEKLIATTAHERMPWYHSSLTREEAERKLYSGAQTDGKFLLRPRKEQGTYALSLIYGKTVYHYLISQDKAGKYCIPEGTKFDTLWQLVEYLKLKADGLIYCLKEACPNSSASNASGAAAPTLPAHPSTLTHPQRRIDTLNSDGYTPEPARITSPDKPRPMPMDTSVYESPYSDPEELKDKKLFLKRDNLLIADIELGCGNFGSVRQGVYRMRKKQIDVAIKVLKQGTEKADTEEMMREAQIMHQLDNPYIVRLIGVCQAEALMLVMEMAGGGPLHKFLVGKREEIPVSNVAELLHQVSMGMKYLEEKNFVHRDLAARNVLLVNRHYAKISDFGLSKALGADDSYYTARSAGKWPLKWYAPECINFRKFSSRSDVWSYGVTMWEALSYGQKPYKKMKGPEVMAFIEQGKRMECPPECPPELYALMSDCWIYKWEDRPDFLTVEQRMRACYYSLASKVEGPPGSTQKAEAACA
Summary of the method: as §1

[12] = molecular target: T12, SAPK2a (Homo sapiens, UniProt Q16539); conditions: for inhibition at 10 µM: read-out: inhibition of p38α(SAPK2α); for remaining activity at 10 µM: read-out: percentage of control activity (POC), SAPK2a
T12 construct: purchased Eurofins Pharma Discovery Services (KinaseProfiler; Cerep BioPrint panel)
Summary of the method: as §1

T12 sequence (Q16539 whole entry): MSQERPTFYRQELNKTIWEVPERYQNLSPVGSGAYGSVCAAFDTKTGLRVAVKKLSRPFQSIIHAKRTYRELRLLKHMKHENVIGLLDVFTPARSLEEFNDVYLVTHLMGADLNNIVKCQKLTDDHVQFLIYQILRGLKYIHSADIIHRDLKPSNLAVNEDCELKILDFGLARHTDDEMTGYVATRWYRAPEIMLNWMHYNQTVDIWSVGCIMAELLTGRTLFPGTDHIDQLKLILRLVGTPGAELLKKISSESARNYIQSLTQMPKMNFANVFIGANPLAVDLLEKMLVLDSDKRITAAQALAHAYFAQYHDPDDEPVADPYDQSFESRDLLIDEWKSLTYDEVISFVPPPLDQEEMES
T6 sequence (P35968 20-1356): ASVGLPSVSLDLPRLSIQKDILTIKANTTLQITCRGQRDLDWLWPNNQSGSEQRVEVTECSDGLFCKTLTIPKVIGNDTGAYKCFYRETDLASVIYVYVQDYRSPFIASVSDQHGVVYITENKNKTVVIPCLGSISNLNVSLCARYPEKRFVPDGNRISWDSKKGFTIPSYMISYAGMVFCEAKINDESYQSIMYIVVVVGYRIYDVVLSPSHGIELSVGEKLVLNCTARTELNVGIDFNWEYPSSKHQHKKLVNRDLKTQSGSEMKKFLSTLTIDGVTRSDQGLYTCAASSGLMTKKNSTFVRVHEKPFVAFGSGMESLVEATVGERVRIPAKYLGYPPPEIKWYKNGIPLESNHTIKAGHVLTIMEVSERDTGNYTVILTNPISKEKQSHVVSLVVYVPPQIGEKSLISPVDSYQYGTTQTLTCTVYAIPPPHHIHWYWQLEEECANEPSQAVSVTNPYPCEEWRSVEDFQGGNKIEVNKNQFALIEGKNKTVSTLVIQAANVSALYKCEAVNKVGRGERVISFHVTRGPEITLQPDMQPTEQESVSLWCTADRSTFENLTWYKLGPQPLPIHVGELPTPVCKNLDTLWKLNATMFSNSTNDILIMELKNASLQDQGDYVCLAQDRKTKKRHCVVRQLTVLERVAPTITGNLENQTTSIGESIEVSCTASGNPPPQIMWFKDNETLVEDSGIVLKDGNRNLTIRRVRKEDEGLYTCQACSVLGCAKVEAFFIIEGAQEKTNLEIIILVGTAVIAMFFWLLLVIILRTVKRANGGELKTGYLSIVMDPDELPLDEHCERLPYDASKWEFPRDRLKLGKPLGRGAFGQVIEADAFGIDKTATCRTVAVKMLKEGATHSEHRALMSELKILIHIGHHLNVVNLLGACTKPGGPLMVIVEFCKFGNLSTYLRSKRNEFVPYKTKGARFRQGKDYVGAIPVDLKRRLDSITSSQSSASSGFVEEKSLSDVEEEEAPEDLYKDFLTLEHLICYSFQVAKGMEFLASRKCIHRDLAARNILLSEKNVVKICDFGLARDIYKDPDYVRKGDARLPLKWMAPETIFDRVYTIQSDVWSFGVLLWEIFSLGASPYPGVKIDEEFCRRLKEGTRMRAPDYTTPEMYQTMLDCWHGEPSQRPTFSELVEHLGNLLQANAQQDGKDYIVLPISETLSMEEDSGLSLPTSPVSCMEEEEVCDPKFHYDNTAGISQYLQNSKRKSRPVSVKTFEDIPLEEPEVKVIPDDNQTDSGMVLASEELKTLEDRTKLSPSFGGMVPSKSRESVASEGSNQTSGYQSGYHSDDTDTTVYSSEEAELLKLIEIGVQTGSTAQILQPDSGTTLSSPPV
T4 sequence (Q14289 whole entry): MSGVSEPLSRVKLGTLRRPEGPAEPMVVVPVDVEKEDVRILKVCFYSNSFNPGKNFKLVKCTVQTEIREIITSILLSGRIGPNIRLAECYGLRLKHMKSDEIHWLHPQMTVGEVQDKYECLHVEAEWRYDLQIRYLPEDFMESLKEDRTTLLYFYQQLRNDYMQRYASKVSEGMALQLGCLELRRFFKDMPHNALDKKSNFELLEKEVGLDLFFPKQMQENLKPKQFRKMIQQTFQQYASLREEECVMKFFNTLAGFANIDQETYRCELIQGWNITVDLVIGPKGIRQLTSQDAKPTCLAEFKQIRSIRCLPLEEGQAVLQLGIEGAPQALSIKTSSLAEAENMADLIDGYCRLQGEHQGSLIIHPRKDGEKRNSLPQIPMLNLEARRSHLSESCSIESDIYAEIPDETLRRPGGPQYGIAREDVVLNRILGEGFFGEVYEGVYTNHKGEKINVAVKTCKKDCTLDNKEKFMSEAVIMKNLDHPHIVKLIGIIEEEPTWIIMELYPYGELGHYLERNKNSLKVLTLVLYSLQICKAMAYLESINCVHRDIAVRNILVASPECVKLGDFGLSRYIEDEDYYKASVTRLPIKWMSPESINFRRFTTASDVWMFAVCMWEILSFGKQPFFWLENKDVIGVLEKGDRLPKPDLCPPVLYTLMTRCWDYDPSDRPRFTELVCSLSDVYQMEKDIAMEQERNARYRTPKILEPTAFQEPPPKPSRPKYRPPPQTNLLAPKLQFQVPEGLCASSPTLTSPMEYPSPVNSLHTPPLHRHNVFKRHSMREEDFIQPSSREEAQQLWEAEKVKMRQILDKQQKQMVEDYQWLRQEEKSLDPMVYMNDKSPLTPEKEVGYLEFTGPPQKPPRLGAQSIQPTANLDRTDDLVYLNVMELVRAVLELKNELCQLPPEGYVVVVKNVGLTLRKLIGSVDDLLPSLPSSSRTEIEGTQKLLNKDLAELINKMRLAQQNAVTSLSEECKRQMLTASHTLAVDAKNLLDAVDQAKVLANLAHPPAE
T9 sequence (P48730 whole entry): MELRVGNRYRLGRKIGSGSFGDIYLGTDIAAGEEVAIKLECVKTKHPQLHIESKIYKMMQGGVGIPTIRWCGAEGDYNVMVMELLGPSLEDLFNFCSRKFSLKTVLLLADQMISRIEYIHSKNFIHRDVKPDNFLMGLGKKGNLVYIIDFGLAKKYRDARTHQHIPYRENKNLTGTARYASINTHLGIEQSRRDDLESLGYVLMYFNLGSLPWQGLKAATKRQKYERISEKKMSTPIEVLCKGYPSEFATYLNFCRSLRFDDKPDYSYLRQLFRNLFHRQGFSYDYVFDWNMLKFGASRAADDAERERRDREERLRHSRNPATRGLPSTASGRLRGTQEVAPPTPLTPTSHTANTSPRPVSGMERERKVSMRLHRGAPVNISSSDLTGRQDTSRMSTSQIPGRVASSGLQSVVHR
T8 sequence (Q13882 whole entry): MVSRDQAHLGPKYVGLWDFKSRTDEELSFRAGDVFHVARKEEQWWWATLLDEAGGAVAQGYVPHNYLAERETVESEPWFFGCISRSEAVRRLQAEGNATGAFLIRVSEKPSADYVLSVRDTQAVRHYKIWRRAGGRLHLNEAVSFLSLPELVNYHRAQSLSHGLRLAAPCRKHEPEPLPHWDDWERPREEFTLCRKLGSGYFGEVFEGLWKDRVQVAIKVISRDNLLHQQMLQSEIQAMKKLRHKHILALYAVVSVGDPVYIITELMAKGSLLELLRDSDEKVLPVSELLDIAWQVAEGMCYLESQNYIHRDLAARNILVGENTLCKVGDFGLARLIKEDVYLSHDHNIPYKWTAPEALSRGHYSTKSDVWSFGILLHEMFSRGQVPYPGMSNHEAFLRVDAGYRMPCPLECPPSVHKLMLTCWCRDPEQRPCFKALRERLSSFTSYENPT
T7 sequence (P51617 whole entry): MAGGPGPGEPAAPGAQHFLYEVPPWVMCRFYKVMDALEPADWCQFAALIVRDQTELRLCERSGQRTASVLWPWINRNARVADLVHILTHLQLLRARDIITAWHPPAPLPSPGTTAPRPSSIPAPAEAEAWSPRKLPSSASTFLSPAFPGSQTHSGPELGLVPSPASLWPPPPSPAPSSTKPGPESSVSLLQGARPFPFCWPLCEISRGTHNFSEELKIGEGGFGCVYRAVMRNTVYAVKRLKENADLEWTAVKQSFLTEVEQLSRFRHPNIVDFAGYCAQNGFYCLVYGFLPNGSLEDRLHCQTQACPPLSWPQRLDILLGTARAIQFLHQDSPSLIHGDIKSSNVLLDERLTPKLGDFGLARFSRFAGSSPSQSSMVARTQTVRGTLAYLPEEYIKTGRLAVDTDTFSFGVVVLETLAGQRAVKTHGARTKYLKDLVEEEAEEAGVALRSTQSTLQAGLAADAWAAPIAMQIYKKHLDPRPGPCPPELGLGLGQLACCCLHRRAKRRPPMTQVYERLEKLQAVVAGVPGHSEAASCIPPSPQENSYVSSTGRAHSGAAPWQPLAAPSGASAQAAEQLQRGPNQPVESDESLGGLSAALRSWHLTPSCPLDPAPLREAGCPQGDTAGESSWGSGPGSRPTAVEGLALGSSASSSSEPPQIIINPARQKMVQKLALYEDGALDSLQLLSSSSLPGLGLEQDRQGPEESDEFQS

Row | remaining activity at 10 µM [1] | remaining activity at 10 µM [2] | remaining activity at 10 µM ([3]; 10 μM) | remaining activity at 10 µM [4] | remaining activity at 10 µM [5] | remaining activity at 10 µM [6] | remaining activity at 10 µM [7] | remaining activity at 10 µM [8] | remaining activity at 10 µM [9] | remaining activity at 10 µM [10] | remaining activity at 10 µM [11] | inhibition at 10 µM [12] | remaining activity at 10 µM [12] | Compound | inhibition at 10 µM ([3]; 10 μM) | IC50 ([3]; biochemical dose response, duplicate, read-out: Inhibition of indicated activity (IC50, μM): mTOR)
1 | 106% | 99% | 99% | 99% | 95% | 93% | 91% | 103% | 100% | 98% | 97% | ~100% | -2% | Cc1ccc(C(=O)NCC2CC2)cc1-c1ccc2c(c1)NC(=O)C21CCCC1 [compound 3] |  | 
2 | 104% | 95% | 96% | 87% | 102% | 82% | 95% | 98% | 111% | 114% | 104% | ~100% | -1% | COc1c(NC(=O)c2ccc(C)c(-c3nnc4c(NCC(C)(C)C)nccn34)c2)cc(C(C)(C)C)cc1NS(C)(=O)=O [compound 7, reference compound] |  | 

More lines, now with the values behind:

Row | Compound | remaining activity at 10 µM [1] | remaining activity at 10 µM [2] | remaining activity at 10 µM ([3]; 10 μM) | remaining activity at 10 µM [4] | remaining activity at 10 µM [5] | remaining activity at 10 µM [6] | remaining activity at 10 µM [7] | remaining activity at 10 µM [8] | remaining activity at 10 µM [9] | remaining activity at 10 µM [10] | remaining activity at 10 µM [11] | inhibition at 10 µM [12] | remaining activity at 10 µM [12] | inhibition at 10 µM ([3]; 10 μM) | IC50 ([3]; biochemical dose response, duplicate, read-out: Inhibition of indicated activity (IC50, μM): mTOR)
3 | CC(C)(C)N1CCC(c2cc(-c3ccc(F)cc3Cl)c3cc[n+]([O-])c(-c4c(Cl)cccc4Cl)c3n2)CC1 [compound 2] | 110% | 100% | 101% | 99% | 106% | 92% | 102% | 98% | 110% | 105% | 105% | ~100% | -1% |  | 
4 | Cn1cc(-c2cccc(-c3nc(C(=O)NC4C5CC6CC4CC(O)(C6)C5)c(N)nc3N)c2)cn1 (centres unmarked) [compound 4] | 101% | 85% | 13% | 86% | 85% | 72% | 89% | 71% | 50% | 85% | 104% |  | 91% | 87% | ~1 µM and 0.964 µM
5 | CS(=O)(=O)N1CCN(c2ccc(Nc3ncc(C(N)=O)c(NC4CC4)n3)cc2)CC1 [compound 5] | 60% | 4% | 96% | 4% | 38% | 6% | 20% | 39% | 23% | -1% | 53% |  | 89% |  | 
